Measurements published in paper PMC8162438, “Cancer cell-selective modulation of mitochondrial respiration and metabolism by potent organogold(III) dithiocarbamates” (Chemical Science, 2020).

System: MDA-MB-231
Experiment: Whole-cell uptake after pre-treatment with uptake inhibitors (GF-AAS)
Type: cell-based
Conditions: MDA-MB-231, 5 μM, 24 h; NaN3, chlorpromazine, Me-β-CD, genistein, wortmannin
Protocol: To understand cell uptake mechanisms, detailed uptake studies using GF-AAS were conducted whereby MDA-MB-231 cells were incubated with gold compound, 2a after cellular pretreatment with one of a number of known inhibitors of cellular uptake. Sodium azide (NaN3), which is known to inhibit mitochondrial oxidative phosphorylation, was used as a general inhibitor of energy (ATP)-dependent (active) uptake; chlorpromazine (CL) was utilized as an inhibitor of clathrin-dependent endocytosis (CDE); β-cyclodextrin (Me-β-CD) and genestein (Gen) were used as inhibitors of clathrin-independent endocytosis (CIE); and, wortmannin (Wort) was employed as a known inhibitor of micropinocytosis. […] Being an […] pathway illustrates that these compounds are not dependent on oxidative phosphorylation for uptake, despite; their ability to modulate OXPHOS. […]
and treated at a final concentration of 5 µ M and treated for 24 hours as well. The cells were then collected by trypsinization and centrifuged at 2000 rpm for 5 minutes to form a pellet. […]
text (Figure 5C). Samples 37 °C, NaN 3, methyl-β-cyclodextrin, and chlorpromazine hydrochloride were calculated using calibration curve Fig. S134 and samples wortmannin, genistein, and +4 °C were calculated using calibration curve Fig. S135. […]

## C[N+](C)=C1[S][Au-2]2([S]1)[c]1ccccc1Cc1cccc[n+]12.F[P-](F)(F)(F)(F)F (stereo not shown) [2a]
  Uptake after pre-treatment with uptake inhibitors: significantly decreased with all inhibitors with the exception of NaN3
